Data as given in US20070154452A1, “Therapeutic agent for pancreas cancer” (ORIENT CANCER THERAPY, priority 2004, published 2007).
Counter-ions that a name gives are not always drawn.

How the values were obtained:
Type in all cases: in vivo, human
IL-12 = IL-12 production of the patients' peripheral blood monocyte fraction (ELISA); settings: pancreas cancer, 8 cases, before and after Gemzar 1000 mg/mm^2 for three weeks then a week break, FIG. 3
Experimental: Firstly, a monocyte fraction is separated from blood for preparation. After heparinized peripheral blood is diluted twofold with Phosphate Buffer Saline (PBS) and mixed, the mixture is overlaid on Ficoll-Conray solution (specific gravity 1.077), centrifuged at […] for 20 minutes to collect a monocyte fraction. After washing it, RPMI-1640 medium added with 10% fetal bovine serum (FBS) is added and prepared such that the cell number becomes 1×10^6. Into 200 μl of the obtained cell suspension, Phytohemagglutinin (supplied by DIFCO) is added into a concentration of 20 μg/ml, then cultured it in a 96-well microplate in the presence of 5% CO2 at 37° C. for 24 hours to obtain a sample for measuring two kinds of cytokines in the cultured cell solution. To measure the amount of IL-12, a measuring kit based on enzyme immunoassay (ELISA) available from, for example, R&D SYSTEMS and MBL is used, though well known clinical and biochemical examinations can be used. Herein, a measuring kit supplied by R&D SYSTEMS was used. In practice, into each well of a 96-well microplate, 50 μl of measuring diluent of Assay Diluent RD1F, and 200 μl of standard or sample prepared from the preparation method for measuring cytokines described above were dispensed, and then allowed it to stand and react at room temperature for 2 hours. […] The amount of IL-12 is expressed as pg/ml. […]

Th1/Th2 = Th1/Th2 before and after administration of Gemzar; settings: pancreas cancer, 8 cases, before and after Gemzar 1000 mg/mm^2 for three weeks then a week break, FIG. 3
From the text: Gemcitabine hydrochloride (Gemzar™) is an anticancer agent developed by Eli Lilly and Company. This Gemzar was approved to apply for insurance for pancreas cancer in April in 2001. […] Inhibitory effects were also not observed in the ratios of NK cells (8 cases), perforin-producing NK cells (8 cases), NKT cells (8 cases) and perforin-producing NKT cells (8 cases) to total lymphocytes (FIG. 4).

IFNγ = IFNγ production of the patients' peripheral blood monocyte fraction (EIA); parameters: dose or concentration left out as unconfirmed; settings: pancreas cancer, 8 cases, before and after Gemzar for three weeks then a week break, FIG. 3
Experimental: Firstly, a monocyte fraction is separated from blood for preparation. After heparinized peripheral blood is diluted twofold with Phosphate Buffer Saline (PBS) and mixed, the mixture is overlaid on Ficoll-Conray solution (specific gravity 1.077), centrifuged at […] for 20 minutes to collect a monocyte fraction. After washing it, RPMI-1640 medium added with 10% fetal bovine serum (FBS) is added and prepared such that the cell number becomes 1×10^6. Into 200 μl of the obtained cell suspension, Phytohemagglutinin (supplied by DIFCO) is added into a concentration of 20 μg/ml, then cultured it in a 96-well microplate in the presence of 5% CO2 at 37° C. for 24 hours to obtain a sample for measuring two kinds of cytokines in the cultured cell solution. The measurement of IFNγ was conducted by enzyme immunoassay (EIA method) using […] kit from BioSource Europe S. In practice, into a each well of a 96-well microplate, 50 μl of standard or the twofold dilution of prepared sample described above was dispensed, then 50 μl of anti-IFNγ antibody labeled with HRP was dispensed, and further allowed to react for 2 hours at room temperature with shaking. […] The amount of IFNγ is expressed as IU/ml.

NK cells and NKT cells = test: Ratios of NK, NKT and perforin-producing cells to total lymphocytes (flow cytometry); settings: pancreas cancer, 8 cases, before and after Gemzar, FIG. 4
Experimental: The measurement of NKT cells having NKR-P1 can be conducted by measuring cell surface antigens (CD3 and CD161 ) which are specifically presented on the NKT cell surface. In particular, lymphocytes in peripheral blood are tested for cells of CD3 positive and CD161 positive [CD3 (+) and CD161 (+)]. Thus, CD3 and CD161 which are cell surface antigens on NKT cell are measured by Two Color assay which uses monoclonal antibodies and flow cytometry. Here, activated NKT cells mean that the ratio of NKT [CD3 (+) and CD161 (+)] cells in lymphocytes is 10% or more, and more preferably 16% or more. The ability of activating NKT cell means the function which can increase NKT cell ratio by 10% or more, and more preferably 16% or more, or which can further increase NKT cell ratio more than that before administering a certain substance. Likewise, [CD3 (−) and CD161 (+) ] means to assay for CD3 negative and CD161 positive cells. This method is useful in measurement of NK cells. In addition, CD8 (+) means to assay for CD8 positive cells. This method is useful in measurement of CTL activity. In the Examples, bloods from cancer patients were used, and cells in blood were separated into positive and negative for cell surface antigens, CD3, CD161 and CD8, and each cell ratio was measured by Two Color assay using flow cytometry following a conventional manner. At this time, monoclonal antibodies used against CD3 , CD161 and CD8 were supplied by Coulter or Becton & Dickinson respectively. For lymphocytes in peripheral blood, two of CD3 , CD161 and CD8 of cell surface antigens and perforin are measured by Three Color assay using flow cytometry following a conventional manner. Specifically, into a collected blood, a fixative solution is added to fix cells, then after adding a membrane permeabilizer, an anti-perforin antibody (supplied by Pharmingen) is added for reaction, further secondary antibody labeled with PRE-Cy5 (from DAKO) is added for reaction, then anti-CD3-PE (Coulter 6604627) antibody and anti-CD161-FITC (B-D) antibody are added for reaction, thereafter subjected to measurement by flow cytometry. They were abbreviated as P or PER in figures and tables.

Nc1ccn([C@@H]2O[C@H](CO)[C@@H](O)C2(F)F)c(=O)n1 [Gemzar, gemcitabine hydrochloride]
not observed: effects inhibiting cytokines: IL-12 (IL-12) | effects inhibiting cytokines: Th1/Th2 (Th1/Th2) | effects inhibiting cytokines: IFNγ (IFNγ) | inhibitory effects on ratio of NK cells to total lymphocytes (NK cells and NKT cells) | inhibitory effects on ratio of NKT cells to total lymphocytes (NK cells and NKT cells) | inhibitory effects on ratio of perforin-producing NK cells to total lymphocytes (NK cells and NKT cells) | inhibitory effects on ratio of perforin-producing NKT cells to total lymphocytes (NK cells and NKT cells)
